According to article PMC8657982, “Overlap and Specificity in the Substrate Spectra of Human Monoamine Transporters and Organic Cation Transporters 1, 2, and 3” (International Journal of Molecular Sciences, 2021):

Experiments:
SERT = SERT (Homo sapiens, UniProt P31645); assay: Uptake into HEK293 cells overexpressing SERT (uptake ratio and concentration-dependent uptake); conditions: for Clint ± SEM: SERT, intrinsic clearance, quotient of vmax and Km;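 as to Uptake Ratio by Transporter SERT: ratio of uptake in SERT cells over empty-vector control cells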;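 as to all read-outs here: incubation at 37 °C, intracellular compound quantified by HPLC-MS/MS after cell lysis, uptake normalized to total protein measured by bicinchoninic acid assay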
DAT = DAT (Homo sapiens, UniProt Q01959); assay: Uptake into HEK293 cells overexpressing DAT (uptake ratio and concentration-dependent uptake); conditions: intrinsic clearance, quotient of vmax and Km
OCT1 = biological target: T1, OCT1 (Homo sapiens, UniProt O15245); assay: Uptake into HEK293 cells overexpressing OCT1 (uptake ratio and concentration-dependent uptake); conditions: intrinsic clearance, quotient of vmax and Km
T1 sequence (O15245 1-554): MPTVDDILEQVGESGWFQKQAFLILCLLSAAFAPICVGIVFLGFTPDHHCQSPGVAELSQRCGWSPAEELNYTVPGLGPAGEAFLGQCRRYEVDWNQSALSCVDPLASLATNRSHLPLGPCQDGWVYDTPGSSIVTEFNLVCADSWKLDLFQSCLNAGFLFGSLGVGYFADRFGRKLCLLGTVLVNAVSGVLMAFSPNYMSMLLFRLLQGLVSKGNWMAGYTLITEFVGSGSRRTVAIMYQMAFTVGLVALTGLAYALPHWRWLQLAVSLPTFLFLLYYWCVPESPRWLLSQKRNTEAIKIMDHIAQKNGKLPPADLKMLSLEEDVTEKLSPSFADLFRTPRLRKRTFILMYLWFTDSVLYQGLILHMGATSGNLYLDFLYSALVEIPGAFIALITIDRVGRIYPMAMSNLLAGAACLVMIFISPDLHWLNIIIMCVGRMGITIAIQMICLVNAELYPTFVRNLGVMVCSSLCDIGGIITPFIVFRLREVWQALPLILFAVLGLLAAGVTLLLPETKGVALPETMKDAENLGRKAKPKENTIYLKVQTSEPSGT

OCT2 = biological target: T2, OCT2 (Homo sapiens, UniProt O15244); assay: Uptake into HEK293 cells overexpressing OCT2 (uptake ratio and concentration-dependent uptake); conditions: for Vmax ± SEM: concentration-dependent net uptake, Michaelis–Menten; for Clint ± SEM: intrinsic clearance, quotient of vmax and Km
T2 sequence (O15244 1-555): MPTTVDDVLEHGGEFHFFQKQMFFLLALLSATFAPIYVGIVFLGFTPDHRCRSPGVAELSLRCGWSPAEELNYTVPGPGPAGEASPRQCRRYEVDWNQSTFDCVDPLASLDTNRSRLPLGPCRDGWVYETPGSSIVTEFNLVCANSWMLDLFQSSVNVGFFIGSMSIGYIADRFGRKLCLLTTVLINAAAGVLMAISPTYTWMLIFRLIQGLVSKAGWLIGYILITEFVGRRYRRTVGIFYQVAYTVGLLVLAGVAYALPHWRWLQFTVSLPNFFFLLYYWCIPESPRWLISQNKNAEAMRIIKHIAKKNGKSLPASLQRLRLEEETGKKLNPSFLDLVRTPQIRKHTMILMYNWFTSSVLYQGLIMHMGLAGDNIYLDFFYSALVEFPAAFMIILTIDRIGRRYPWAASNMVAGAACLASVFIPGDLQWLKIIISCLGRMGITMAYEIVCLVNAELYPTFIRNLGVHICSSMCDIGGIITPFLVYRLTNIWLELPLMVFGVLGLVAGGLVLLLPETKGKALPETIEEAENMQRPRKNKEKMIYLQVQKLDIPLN

NET = NET (Homo sapiens, UniProt P23975); assay: Uptake into HEK293 cells overexpressing NET (uptake ratio and concentration-dependent uptake); conditions: intrinsic clearance, quotient of vmax and Km
OCT3 = biological target: T3, OCT3 (Homo sapiens, UniProt O75751); assay: Uptake into HEK293 cells overexpressing OCT3 (uptake ratio and concentration-dependent uptake); conditions: intrinsic clearance, quotient of vmax and Km
T3 sequence (O75751 1-556): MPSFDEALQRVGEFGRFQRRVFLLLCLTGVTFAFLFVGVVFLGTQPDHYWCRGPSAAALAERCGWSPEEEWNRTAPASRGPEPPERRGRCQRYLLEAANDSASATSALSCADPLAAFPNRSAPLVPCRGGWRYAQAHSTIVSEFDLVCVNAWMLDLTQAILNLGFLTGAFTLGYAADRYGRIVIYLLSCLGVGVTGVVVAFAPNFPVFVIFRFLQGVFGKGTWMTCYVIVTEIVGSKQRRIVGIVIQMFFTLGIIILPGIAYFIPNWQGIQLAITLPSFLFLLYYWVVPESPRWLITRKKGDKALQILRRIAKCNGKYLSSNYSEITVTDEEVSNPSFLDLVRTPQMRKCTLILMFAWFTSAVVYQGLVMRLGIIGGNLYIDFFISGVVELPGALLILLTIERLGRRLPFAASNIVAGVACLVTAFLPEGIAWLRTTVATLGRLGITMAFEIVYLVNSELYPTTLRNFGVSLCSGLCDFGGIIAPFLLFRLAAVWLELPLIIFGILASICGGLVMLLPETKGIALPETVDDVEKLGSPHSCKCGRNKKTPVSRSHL

[1] = substrate: NCCc1c[nH]c2ccc(O)cc12; assay: cells, lysate or membranes; conditions: concentration-dependent net uptake, Michaelis–Menten, pH 7.4
[2] = substrate: N=C(N)NCc1cccc(I)c1; assay: cells, lysate or membranes; conditions: concentration-dependent net uptake, Michaelis–Menten, pH 7.4
[3] = substrate: CNCCc1c[nH]c2ccc(O)cc12; assay: cells, lysate or membranes; conditions: concentration-dependent net uptake, Michaelis–Menten, pH 7.4

Sequence of SERT (P31645 whole entry): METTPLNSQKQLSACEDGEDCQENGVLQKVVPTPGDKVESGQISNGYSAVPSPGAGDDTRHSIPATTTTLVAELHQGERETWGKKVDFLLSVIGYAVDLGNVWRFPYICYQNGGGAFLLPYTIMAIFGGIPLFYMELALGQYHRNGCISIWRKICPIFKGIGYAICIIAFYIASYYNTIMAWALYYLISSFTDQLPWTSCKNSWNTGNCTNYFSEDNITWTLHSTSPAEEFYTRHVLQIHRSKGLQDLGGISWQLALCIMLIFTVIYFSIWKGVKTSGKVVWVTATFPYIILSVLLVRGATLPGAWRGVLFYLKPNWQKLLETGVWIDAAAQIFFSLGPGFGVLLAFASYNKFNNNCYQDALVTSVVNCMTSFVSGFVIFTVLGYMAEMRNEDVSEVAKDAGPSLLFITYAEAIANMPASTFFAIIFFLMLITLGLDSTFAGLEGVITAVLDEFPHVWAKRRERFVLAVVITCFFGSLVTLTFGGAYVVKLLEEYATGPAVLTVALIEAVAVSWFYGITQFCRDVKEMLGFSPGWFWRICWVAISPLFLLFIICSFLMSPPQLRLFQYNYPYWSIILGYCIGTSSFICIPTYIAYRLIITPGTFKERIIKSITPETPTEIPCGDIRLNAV
Sequence of NET (P23975 whole entry): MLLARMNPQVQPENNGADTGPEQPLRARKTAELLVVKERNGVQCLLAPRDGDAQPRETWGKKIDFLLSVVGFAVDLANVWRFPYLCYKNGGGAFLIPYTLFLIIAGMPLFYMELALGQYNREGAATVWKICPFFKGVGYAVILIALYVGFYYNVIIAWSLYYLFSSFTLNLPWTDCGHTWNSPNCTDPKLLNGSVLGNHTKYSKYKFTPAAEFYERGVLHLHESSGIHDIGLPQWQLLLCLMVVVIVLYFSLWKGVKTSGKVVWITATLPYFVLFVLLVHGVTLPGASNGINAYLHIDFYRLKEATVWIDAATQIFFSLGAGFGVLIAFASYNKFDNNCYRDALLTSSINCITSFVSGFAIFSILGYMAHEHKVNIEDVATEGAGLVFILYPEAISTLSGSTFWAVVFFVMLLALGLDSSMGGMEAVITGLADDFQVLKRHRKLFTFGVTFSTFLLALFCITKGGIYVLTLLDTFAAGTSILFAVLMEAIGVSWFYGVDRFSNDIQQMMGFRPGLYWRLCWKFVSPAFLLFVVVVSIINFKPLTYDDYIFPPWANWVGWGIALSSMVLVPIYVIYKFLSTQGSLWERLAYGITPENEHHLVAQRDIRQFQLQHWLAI
Sequence of DAT (Q01959 whole entry): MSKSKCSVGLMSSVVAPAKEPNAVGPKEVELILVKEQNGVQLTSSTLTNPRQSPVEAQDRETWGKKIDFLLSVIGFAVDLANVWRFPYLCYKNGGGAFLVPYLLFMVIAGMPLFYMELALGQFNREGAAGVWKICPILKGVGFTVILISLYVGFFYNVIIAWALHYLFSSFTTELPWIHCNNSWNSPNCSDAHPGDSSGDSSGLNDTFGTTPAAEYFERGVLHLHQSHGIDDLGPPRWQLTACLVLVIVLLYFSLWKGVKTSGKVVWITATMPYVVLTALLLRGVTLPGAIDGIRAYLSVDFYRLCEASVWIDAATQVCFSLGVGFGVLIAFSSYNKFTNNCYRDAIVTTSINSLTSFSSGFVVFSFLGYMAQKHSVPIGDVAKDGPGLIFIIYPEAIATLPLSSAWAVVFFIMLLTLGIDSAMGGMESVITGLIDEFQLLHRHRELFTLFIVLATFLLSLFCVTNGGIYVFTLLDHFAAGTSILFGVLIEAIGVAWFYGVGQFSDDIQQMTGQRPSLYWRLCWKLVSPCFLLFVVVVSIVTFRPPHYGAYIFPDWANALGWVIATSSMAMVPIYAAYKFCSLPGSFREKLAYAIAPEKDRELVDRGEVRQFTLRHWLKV

## NC1CC1c1ccccc1 (stereo not shown) [Tranylcypromin, reference compound]
SERT
  Uptake Ratio by Transporter SERT: 2.37

## NCC(O)c1ccccc1 (stereo not shown) [Bisnorephedrine]
SERT
  Uptake Ratio by Transporter SERT: 1.45

## NCCc1c[nH]c2ccc(O)cc12 [Serotonin]
DAT
  Clint ± SEM: 77.39 mL × g Protein^−1 × min^−1
OCT1
  Clint ± SEM: 21.91 mL × g Protein^−1 × min^−1
OCT2
  Vmax ± SEM: 31,565 pmol × mg Protein^−1 × min^−1
  Clint ± SEM: 46.04 mL × g Protein^−1 × min^−1
NET
  Clint ± SEM: 18.83 mL × g Protein^−1 × min^−1
OCT3
  Clint ± SEM: 1.17 mL × g Protein^−1 × min^−1
SERT
  Clint ± SEM: 256.9 mL × g Protein^−1 × min^−1

## COc1ccc(CCN)cc1O [4-Methoxy-m-tyramine]
SERT
  Uptake Ratio by Transporter SERT: 3.86

## C[n+]1ccc(-c2ccccc2)cc1 [MPP+, reference compound]
SERT
  Uptake Ratio by Transporter SERT: 50.42

## NCCc1cccc(O)c1 [m-Tyramine]
SERT
  Uptake Ratio by Transporter SERT: 3.08

## NCc1ccc(O)cc1 [4-Hydroxybenzylamine]
SERT
  Uptake Ratio by Transporter SERT: 1.55

## CNCCc1ccc(O)cc1 [N-Methyl p-tyramine]
SERT
  Uptake Ratio by Transporter SERT: 2.46

## NCCc1c[nH]c2ccccc12 [Tryptamine]
SERT
  Uptake Ratio by Transporter SERT: 4.88
  Clint ± SEM: 22.0 mL × g Protein^−1 × min^−1

## COc1cc(CCN)ccc1O [3-Methoxy-p-tyramine]
SERT
  Uptake Ratio by Transporter SERT: 4.45

## CNCCc1ccccc1 [N-Methylphenylethylamine]
SERT
  Uptake Ratio by Transporter SERT: 2.29

## COc1cc(C(O)CN)ccc1O (stereo not shown) [Normetanephrine]
SERT
  Uptake Ratio by Transporter SERT: 1.91

## NCCc1ccc(O)c(O)c1 [Dopamine]
DAT
  Clint ± SEM: 78.9 mL × g Protein^−1 × min^−1

## CNCCc1c[nH]c2ccc(O)cc12 [N-Methyl serotonin]
OCT1
  Clint ± SEM: 80.52 mL × g Protein^−1 × min^−1
OCT2
  Vmax ± SEM: 11,918 pmol × mg Protein^−1 × min^−1
  Clint ± SEM: 46.93 mL × g Protein^−1 × min^−1
OCT3
  Clint ± SEM: 9.68 mL × g Protein^−1 × min^−1
SERT
  Clint ± SEM: 337.7 mL × g Protein^−1 × min^−1

## COc1ccc2[nH]cc(CCN)c2c1 [5-Methoxy-Tryptamine]
SERT
  Uptake Ratio by Transporter SERT: 3.46

## NC[C@H](O)c1ccc(O)c(O)c1 [(-)-Norepinephrine]
NET
  Clint ± SEM: 47.8 mL × g Protein^−1 × min^−1

## CNCCc1ccc(O)c(O)c1 [Deoxyepinephrine]
SERT
  Uptake Ratio by Transporter SERT: 13.89

## CNCC(O)c1ccccc1 (stereo not shown) [Halostachine]
SERT
  Uptake Ratio by Transporter SERT: 2.26

## CNCC(O)c1ccc(O)c(OC)c1 (stereo not shown) [Metanephrine]
SERT
  Uptake Ratio by Transporter SERT: 1.97

## CN[C@@H]1CCc2[nH]c3ccc(C(N)=O)cc3c2C1 [(R)-Frovatriptan, reference compound]
SERT
  Clint ± SEM: 38.48 mL × g Protein^−1 × min^−1

## CNCC(O)c1ccc(O)cc1 (stereo not shown) [Synephrine]
SERT
  Uptake Ratio by Transporter SERT: 1.53

## CN(C)CCc1ccc(O)cc1 [Hordenine]
SERT
  Uptake Ratio by Transporter SERT: 2.02

B1: OCT2 (Homo sapiens) (protein)
chain: MPTTVDDVLEHGGEFHFFQKQMFFLLALLSATFAPIYVGIVFLGFTPDHRCRSPGVAELSLRCGWSPAEELNYTVPGPGPAGEASPRQCRRYEVDWNQSTFDCVDPLASLDTNRSRLPLGPCRDGWVYETPGSSIVTEFNLVCANSWMLDLFQSSVNVGFFIGSMSIGYIADRFGRKLCLLTTVLINAAAGVLMAISPTYTWMLIFRLIQGLVSKAGWLIGYILITEFVGRRYRRTVGIFYQVAYTVGLLVLAGVAYALPHWRWLQFTVSLPNFFFLLYYWCIPESPRWLISQNKNAEAMRIIKHIAKKNGKSLPASLQRLRLEEETGKKLNPSFLDLVRTPQIRKHTMILMYNWFTSSVLYQGLIMHMGLAGDNIYLDFFYSALVEFPAAFMIILTIDRIGRRYPWAASNMVAGAACLASVFIPGDLQWLKIIISCLGRMGITMAYEIVCLVNAELYPTFIRNLGVHICSSMCDIGGIITPFLVYRLTNIWLELPLMVFGVLGLVAGGLVLLLPETKGKALPETIEEAENMQRPRKNKEKMIYLQVQKLDIPLN
[1]; other: OCT2
  Km: 685.6 µM
  Vmax: 31565 pmol × mg Protein^−1 × min^−1
[2]; other: OCT2
  Km: 13.3 ± 2.4 µM
  Vmax: 0.00204 µmol/min/mg
  Vmax/Km: 152 µL/min/mg
[3]; other: OCT2
  Km: 253.9 ± 54.98 µM
  Vmax: 11918 pmol × mg Protein^−1 × min^−1

B2: OCT3 (Homo sapiens) (protein)
chain: MPSFDEALQRVGEFGRFQRRVFLLLCLTGVTFAFLFVGVVFLGTQPDHYWCRGPSAAALAERCGWSPEEEWNRTAPASRGPEPPERRGRCQRYLLEAANDSASATSALSCADPLAAFPNRSAPLVPCRGGWRYAQAHSTIVSEFDLVCVNAWMLDLTQAILNLGFLTGAFTLGYAADRYGRIVIYLLSCLGVGVTGVVVAFAPNFPVFVIFRFLQGVFGKGTWMTCYVIVTEIVGSKQRRIVGIVIQMFFTLGIIILPGIAYFIPNWQGIQLAITLPSFLFLLYYWVVPESPRWLITRKKGDKALQILRRIAKCNGKYLSSNYSEITVTDEEVSNPSFLDLVRTPQMRKCTLILMFAWFTSAVVYQGLVMRLGIIGGNLYIDFFISGVVELPGALLILLTIERLGRRLPFAASNIVAGVACLVTAFLPEGIAWLRTTVATLGRLGITMAFEIVYLVNSELYPTTLRNFGVSLCSGLCDFGGIIAPFLLFRLAAVWLELPLIIFGILASICGGLVMLLPETKGIALPETVDDVEKLGSPHSCKCGRNKKTPVSRSHL
[2]; other: OCT3
  Km: 10.5 ± 1.9 µM
  Vmax: 0.00169 µmol/min/mg
  Vmax/Km: 161 µL/min/mg
[3]; other: OCT3
  Km: 18.78 ± 12.42 µM
  Vmax: 181.7 pmol × mg Protein^−1 × min^−1

B3: OCT1 (Homo sapiens) (protein)
chain: MPTVDDILEQVGESGWFQKQAFLILCLLSAAFAPICVGIVFLGFTPDHHCQSPGVAELSQRCGWSPAEELNYTVPGLGPAGEAFLGQCRRYEVDWNQSALSCVDPLASLATNRSHLPLGPCQDGWVYDTPGSSIVTEFNLVCADSWKLDLFQSCLNAGFLFGSLGVGYFADRFGRKLCLLGTVLVNAVSGVLMAFSPNYMSMLLFRLLQGLVSKGNWMAGYTLITEFVGSGSRRTVAIMYQMAFTVGLVALTGLAYALPHWRWLQLAVSLPTFLFLLYYWCVPESPRWLLSQKRNTEAIKIMDHIAQKNGKLPPADLKMLSLEEDVTEKLSPSFADLFRTPRLRKRTFILMYLWFTDSVLYQGLILHMGATSGNLYLDFLYSALVEIPGAFIALITIDRVGRIYPMAMSNLLAGAACLVMIFISPDLHWLNIIIMCVGRMGITIAIQMICLVNAELYPTFVRNLGVMVCSSLCDIGGIITPFIVFRLREVWQALPLILFAVLGLLAAGVTLLLPETKGVALPETMKDAENLGRKAKPKENTIYLKVQTSEPSGT
[1]; other: OCT1
  Km: 235.6 µM
  Vmax: 5161 pmol × mg Protein^−1 × min^−1
[2]; other: OCT1
  Km: 16.6 ± 3.7 µM
  Vmax: 0.0023 µmol/min/mg
  Vmax/Km: 138 µL/min/mg
[3]; other: OCT1
  Km: 27.78 ± 9.19 µM
  Vmax: 2237 pmol × mg Protein^−1 × min^−1
